The source of these data is PubChem BioAssay (NCI).

Some test systems named below: HCC-2998 colon; HOP-62 NSCLC; HT29 colon; IGROV1 ovarian; K-562 leukemia; SW-620 colon; CCRF-CEM leukemia; SNB-75 CNS.
Holding throughout (assay): DTP human tumour cell line panel, 48 h

The structures appear in SMILES notation.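 All cell lines were grown in 96-well plates and treated with compound for 48 hours. GI50 marks 50% less growth. TGI is the concentration that stops growth completely.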

Turning to `COc1cc(/C=C2\C[C@H]3[C@@H]4CC=C5C[C@@H](O)CC[C@]5(C)[C@H]4CC[C@]3(C)[C@H]2O)ccc1OCCN1CCCC1`, the GI50 in the assay on HCC-2998 colon was 10.1 µM; in the assay on HOP-62 NSCLC, 9.67 µM; in the assay on HT29 colon, 13.2 µM; with IGROV1 ovarian, 17.5 µM; in the assay on K-562 leukemia, 6.86 µM; in the assay on SW-620 colon, 23.7 µM. Also, the total growth inhibition concentration (TGI) with HCC-2998 colon is 20.6 µM; in the assay with HOP-62 NSCLC, 20.8 µM; with HT29 colon it was above 50 µM; in the assay with IGROV1 ovarian, above 50 µM; in the assay with K-562 leukemia, 16.5 µM; with SW-620 colon, above 50 µM.
As for `NC1=CC(=O)c2cccnc2C1=O`, the GI50 in the assay on CCRF-CEM leukemia is 1.19 µM; in the assay with HCC-2998 colon it was 5.82 µM; with HOP-62 NSCLC, 1.32 µM; in the assay with HT29 colon, 3.48 µM; in the assay on IGROV1 ovarian, 1.28 µM; with SNB-75 CNS, 1.21 µM. Besides, the GI50 in the assay with SW-620 colon was 1.56 µM. Besides, the TGI came to 4.88 µM in the assay with CCRF-CEM leukemia; 19.8 µM in the assay on HCC-2998 colon; 2.77 µM in the assay with HOP-62 NSCLC; 14.6 µM with HT29 colon; 3.29 µM with IGROV1 ovarian; 2.58 µM in the assay on SNB-75 CNS. Further, the concentration for total growth inhibition (TGI) with SW-620 colon turned out to be 3.57 µM.
As to `C=CCC(N[C@@H](CO)c1ccccc1)c1cn(Cc2ccccc2Cl)c(=O)n(Cc2ccccc2Cl)c1=O` (stereo partly drawn), the GI50 in the assay with CCRF-CEM leukemia is above 100 µM; in the assay with HCC-2998 colon it was above 100 µM; in the assay on HOP-62 NSCLC it was above 100 µM; in the assay on HT29 colon, above 100 µM; with K-562 leukemia it was above 100 µM; with SNB-75 CNS, 79.3 µM. Also, the GI50 in the assay on SW-620 colon was above 100 µM. Moreover, the concentration for total growth inhibition (TGI) in the assay on CCRF-CEM leukemia, in the assay with HCC-2998 colon, with HOP-62 NSCLC, with HT29 colon, with K-562 leukemia and in the assay on SNB-75 CNS was above 100 µM throughout. In addition, the TGI with SW-620 colon is above 100 µM.
`O=C1/C(=C\c2ccc(F)cc2)CN(C(=O)c2ccccc2)C/C1=C\c1ccc(F)cc1`: the GI50 in the assay with CCRF-CEM leukemia was 1.05 µM; in the assay with HCC-2998 colon, 2.62 µM; in the assay with HOP-62 NSCLC, 3.07 µM; in the assay on HT29 colon it was 1.67 µM; in the assay with IGROV1 ovarian it was 3.33 µM; in the assay with K-562 leukemia it was 0.983 µM. For the same molecule, in the assay on SNB-75 CNS, the GI50 was 3.57 µM. The concentration for total growth inhibition (TGI) in the assay on CCRF-CEM leukemia was above 100 µM; in the assay on HCC-2998 colon, 6.98 µM; with HOP-62 NSCLC, 8.5 µM; in the assay on HT29 colon, 4.34 µM; in the assay on IGROV1 ovarian it was 10.7 µM; with K-562 leukemia, above 100 µM. Moreover, the TGI with SNB-75 CNS stood at 42.6 µM.
As for `O=C(/C=C/c1ccco1)c1cc(F)c(Cl)cc1Cl`, the GI50 with CCRF-CEM leukemia is 18.8 µM; with HOP-62 NSCLC, 19.2 µM; in the assay on HT29 colon, 24.3 µM; with IGROV1 ovarian it was 17.2 µM; in the assay with K-562 leukemia it was 30.2 µM; in the assay with SNB-75 CNS, 22.3 µM. Also, the GI50 with SW-620 colon was 13.1 µM. For the same molecule, the TGI with CCRF-CEM leukemia is 47.5 µM; in the assay on HOP-62 NSCLC, 39.1 µM; in the assay on HT29 colon, 52.1 µM; with IGROV1 ovarian, 41 µM; in the assay with K-562 leukemia, above 100 µM; in the assay on SNB-75 CNS, 44.2 µM. In the assay on SW-620 colon, this molecule gave a TGI of 36.3 µM.
In the case of `CC[C@H]1CN2CCc3cc(OC)c(OC)cc3C2C[C@@H]1CC1NCCc2cc(OC)c(OC)cc21` (stereo partly drawn), the GI50 with CCRF-CEM leukemia is 0.0186 µM; in the assay with K-562 leukemia it was 0.0137 µM. Further, the TGI was 0.204 µM in the assay on CCRF-CEM leukemia; 0.065 µM with HCC-2998 colon; 0.0815 µM in the assay with HOP-62 NSCLC; 0.0479 µM in the assay on HT29 colon; 0.407 µM in the assay on IGROV1 ovarian; 0.0779 µM in the assay on K-562 leukemia. The same molecule returned a TGI with SW-620 colon of 0.238 µM.
In the case of `O=C(O)/C=C/C(=O)N1Cc2cc3ccccc3nc2C1`, the concentration for total growth inhibition (TGI) in the assay with HCC-2998 colon, in the assay with HOP-62 NSCLC, with HT29 colon, in the assay on IGROV1 ovarian, with K-562 leukemia and in the assay on SNB-75 CNS was above 100 µM throughout. Also, the total growth inhibition concentration (TGI) with SW-620 colon was above 100 µM.
As to `COC1=CC(c2ccc[nH]2)=N/C1=C\c1[nH]c(C)c(CC(=O)OCc2ccccc2)c1CCC(=O)OCc1ccccc1`, the 50% growth inhibitory concentration (GI50) in the assay with CCRF-CEM leukemia was 0.229 µM; in the assay with HOP-62 NSCLC, 0.365 µM; in the assay with HT29 colon it was 0.287 µM; in the assay with IGROV1 ovarian, 0.4 µM; with SNB-75 CNS, 0.275 µM; in the assay on SW-620 colon it was 0.345 µM. Moreover, the TGI in the assay with CCRF-CEM leukemia is 2.29 µM; in the assay on HOP-62 NSCLC, 2.39 µM; in the assay on HT29 colon it was 2.5 µM; in the assay with IGROV1 ovarian, 2.55 µM; in the assay with SNB-75 CNS, 1.53 µM; in the assay with SW-620 colon it was 2.43 µM.
In the case of `NCCCNc1nc2ccccc2c2c(=O)c3cc(F)cc(F)c3sc12`, the GI50 with HCC-2998 colon was 1.69 µM; in the assay with SNB-75 CNS, 1.36 µM; in the assay on SW-620 colon, 1.64 µM. The concentration for total growth inhibition (TGI) with HCC-2998 colon was found to be 3.36 µM; with SNB-75 CNS, 2.7 µM; in the assay with SW-620 colon it was 3.19 µM.
With `CCC(CC)c1nc(Nc2ccc(C(=O)OC)cc2)c2ccccc2n1`, the GI50 with CCRF-CEM leukemia is 6.64 µM; with HCC-2998 colon it was 8.66 µM; in the assay on HOP-62 NSCLC, 10.4 µM; in the assay with IGROV1 ovarian, 11.6 µM; in the assay on K-562 leukemia it was 7.39 µM; in the assay with SW-620 colon, 12.7 µM. In addition, the total growth inhibition concentration (TGI) in the assay with CCRF-CEM leukemia is 48.9 µM; with HCC-2998 colon, 17.1 µM; with HOP-62 NSCLC, 21.6 µM; in the assay on IGROV1 ovarian it was 28.5 µM; in the assay with K-562 leukemia, above 31.6 µM; with SW-620 colon it was above 27.7 µM.
Take `Cn1cc(C2=C(c3ccccc3[N+](=O)[O-])C(=O)NC2=O)c2ccccc21`: the GI50 was 7.79 µM in the assay with HCC-2998 colon; 5.35 µM with HOP-62 NSCLC; 1.81 µM in the assay with HT29 colon; 6.9 µM in the assay with IGROV1 ovarian; 2.14 µM in the assay on K-562 leukemia; 0.0705 µM in the assay with SNB-75 CNS. Further, the GI50 in the assay with SW-620 colon is 3.97 µM. Also, the TGI with HCC-2998 colon was above 23.7 µM; with HOP-62 NSCLC, above 23.3 µM; in the assay with HT29 colon, 12.4 µM; in the assay with IGROV1 ovarian, above 19.5 µM; in the assay on K-562 leukemia it was above 25 µM; in the assay on SNB-75 CNS, 2.39 µM. In addition, in the assay with SW-620 colon, the TGI was above 20 µM.

What is called GI50 is the concentration at which growth is held to half of that of the control. By TGI is commonly meant the concentration at which net growth stops. The low end stands for greater sensitivity of the cells, the high end for lower sensitivity of the cells.
